Data reported in patent US20230061417A1, “THIENOPYRIMIDINE DERIVATIVES AS LPA RECEPTOR 2 INHIBITORS” (CHIESI FARMACEUTICI S.P.A., priority 2019, published 2023).

These molecules were tested against T1, human recombinant LPA2 (Homo sapiens, UniProt Q9HBW0) (assay: FLIPR calcium mobilization assay, LPA2 antagonism in CHO-hLPA2 cells). Conditions: human recombinant LPA2 in CHO cells, LPA EC80 stimulation, 30 min pre-incubation; read-out: LPA2 IC50.
T1 construct: expressed in transfected cells; host or cells: CHO (CHO-hLPA2 cell line)
T1 sequence (Q9HBW0 whole entry): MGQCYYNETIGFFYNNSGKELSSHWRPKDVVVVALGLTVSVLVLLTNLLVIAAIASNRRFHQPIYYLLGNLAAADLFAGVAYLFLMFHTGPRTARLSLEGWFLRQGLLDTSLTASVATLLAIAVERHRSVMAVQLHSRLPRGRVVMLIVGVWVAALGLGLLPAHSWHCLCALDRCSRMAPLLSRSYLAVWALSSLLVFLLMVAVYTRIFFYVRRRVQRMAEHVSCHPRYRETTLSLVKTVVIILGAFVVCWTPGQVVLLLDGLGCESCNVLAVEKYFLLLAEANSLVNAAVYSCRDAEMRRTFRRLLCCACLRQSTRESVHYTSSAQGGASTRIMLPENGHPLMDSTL
Assay type: cell-based
Method: The effectiveness of compounds of the present invention as LPA2 antagonist can be determined at the human recombinant LPA2 expressed in CHO cells, using a FLIPR assay in 384 well format.
CHO-hLPA2 cell lines are cultured in a humidified incubator at 5% CO2 in DMEM/F-12 (1:1) MIXTURE with 2 mM Glutamax, supplemented with 10% of Foetal Bovine Serum, 1 mM Sodium Pyruvate, 11 mM Hepes and 1× Penicillin/Streptomycin. CHO hLPA2 cells are seeded into black walled clear-bottom 384-well plates (#781091, Greiner Bio-One GmbH) at a density of 7,500 cells per well in 50 μl culture media and grown overnight in a 37° C. humidified CO2-incubator. Serial dilutions (1:3 or 1:4, 11 points CRC) of compounds are performed in 100% DMSO at 200× the final concentration. The compounds are diluted 1:50 prior to the experiment with Assay Buffer (20 mM HEPES, 145 mM NaCl, 5 mM KCl, 5.5 mM glucose, 1 mM MgCl2 and 2 mM CaCl2, pH 7.4 containing 0.01% Pluronic F-127) to obtain a solution corresponding to […] the final concentration in the assay (4×, 2% DMSO). The final concentration of DMSO in the assay will be 0.5% in each well. Medium is removed by aspiration and cells are then incubated with 30 μl of a loading solution containing 5 μM of the cytoplasmic Ca2+ indicator Cal-520 AM in Assay Buffer containing 2.5 mM probenecid for 30 min at 37° C. incubator (cell loading). The loaded cell plates are transferred into the FLIPR instrument and calcium responses are monitored during the on-line addition protocols. For testing of compounds, after the cell loading, 10 μl/well of 4× antagonists' solution was added onto the cells. After 30 min pre-incubation (at 37° C.), 10 μl/well of 5× concentrated LPA EC80 was added and Ca2+ mobilization responses was followed during the on-line addition protocol. Intracellular peak fluorescence values subtracted by baseline fluorescence are exported and analysed to determine IC50 values, respectively. The calcium response is expressed as percentage of the maximal inhibition of the EC80 agonist response.
The raw data (peak height expressed as relative fluorescence units) are normalized and transformed into “percent of inhibition”. Curve fitting and pIC50 (−Log IC50) estimations are carried out using a four-parameter logistic model using XLfit Software.
For COC(=O)Nc1nc(C)c(S(=O)(=O)N2CCN(C[C@H](C)Nc3ncnc4c(C(F)(F)F)csc34)CC2)s1 [Example 1, methyl N-[4-methyl-5-({4-[(2S)-2-{[7-(trifluoromethyl)thieno[3,2-d]pyrimidin-4-yl]amino}propyl]piperazin-1-yl}sulfonyl)-1,3-thiazol-2-yl]carbamate], the IC50 was 10 to 100 nM.
COC(=O)c1ccc(S(=O)(=O)N2CCN(C[C@H](C)Nc3ncnc4c(C)csc34)CC2)s1 [Example 4, Methyl 5-({4-[(2S)-2-({7-methylthieno[3,2-d]pyrimidin-4-yl}amino)propyl]piperazin-1-yl}sulfonyl)thiophene-2-carboxylate] showed an IC50 of under 1000 nM.
With Cc1nc(-c2ccc(S(=O)(=O)N3CCN(C[C@H](C)Nc4ncnc5c(C)csc45)CC3)cc2)cs1 [Example 5, 7-methyl-N-[(2S)-1-{4-[4-(2-methyl-1,3-thiazol-4-yl)benzenesulfonyl]piperazin-1-yl}propan-2-yl]thieno[3,2-d]pyrimidin-4-amine] the IC50 was under 1000 nM.
Work on CC(=O)Nc1cc(F)c(S(=O)(=O)N2CCN(C[C@H](C)Nc3ncnc4c(C)csc34)CC2)cc1C [Example 6, N-[5-fluoro-2-methyl-4-({4-[(2S)-2-({7-methylthieno[3,2-d]pyrimidin-4-yl}amino)propyl]piperazin-1-yl}sulfonyl)phenyl]acetamide] yielded an IC50 of under 1000 nM.
Cc1csc2c(N[C@@H](C)CN3CCN(S(=O)(=O)c4cccc(Br)c4)CC3)ncnc12 [Example 7, N-[(2S)-1-[4-(3-bromobenzenesulfonyl)piperazin-1-yl]propan-2-yl]-7-methylthieno[3,2-d]pyrimidin-4-amine] showed an IC50 of under 1000 nM.
Work on Cc1csc2c(N[C@@H](C)CN3CCN(S(=O)(=O)c4ccc(F)c(Cl)c4)CC3)ncnc12 [Example 9, N-[(2S)-1-[4-(3-chloro-4-fluorobenzenesulfonyl)piperazin-1-yl]propan-2-yl]-7-methylthieno[3,2-d]pyrimidin-4-amine] yielded an IC50 of under 1000 nM.
Work on Cc1csc2c(N[C@@H](C)CN3CCN(S(=O)(=O)c4cc(Br)c(Cl)s4)CC3)ncnc12 [Example 10, N-[(2S)-1-{4-[(4-bromo-5-chlorothiophen-2-yl)sulfonyl]piperazin-1-yl}propan-2-yl]-7-methylthieno[3,2-d]pyrimidin-4-amine] yielded an IC50 of under 1000 nM.
Cc1csc2c(N[C@@H](C)CN3CCN(S(=O)(=O)c4ccc(Br)c(Cl)c4)CC3)ncnc12 [Example 11, N-[(2S)-1-[4-(4-bromo-3-chlorobenzenesulfonyl)piperazin-1-yl]propan-2-yl]-7-methylthieno[3,2-d]pyrimidin-4-amine] gave an IC50 of under 1000 nM.
Molecule COC(=O)c1cc(Br)c(S(=O)(=O)N2CCN(C[C@H](C)Nc3ncnc4c(C)csc34)CC2)s1 [Example 13, methyl 4-bromo-5-({4-[(2S)-2-({7-methylthieno[3,2-d]pyrimidin-4-yl}amino)propyl]piperazin-1-yl}sulfonyl)thiophene-2-carboxylate] has an IC50 of under 1000 nM.
For Cc1csc2c(N[C@@H](C)CN3CCN(S(=O)(=O)c4cnc(-c5ccccc5)nc4)CC3)ncnc12 [Example 15, 7-methyl-N-[(2S)-1-{4-[(2-phenylpyrimidin-5-yl)sulfonyl]piperazin-1-yl}propan-2-yl]thieno[3,2-d]pyrimidin-4-amine], the IC50 was under 1000 nM.
Cc1csc2c(N[C@@H](C)CN3CCN(S(=O)(=O)c4ccc(NC(=O)c5ccncc5)cc4)CC3)ncnc12 [Example 16, N-[4-({4-[(2S)-2-({7-methylthieno[3,2-d]pyrimidin-4-yl}amino)propyl]piperazin-1-yl}sulfonyl)phenyl]pyridine-4-carboxamide] was tested, and the IC50 was under 1000 nM.
With Cc1csc(-c2ccc(S(=O)(=O)N3CCN(C[C@H](C)Nc4ncnc5c(C)csc45)CC3)cc2)n1 [Example 17, 7-methyl-N-[(2S)-1-{4-[4-(4-methyl-1,3-thiazol-2-yl)benzenesulfonyl]piperazin-1-yl}propan-2-yl]thieno[3,2-d]pyrimidin-4-amine] the IC50 was under 1000 nM.
